# Like-named read-outs stand apart in the source and are kept apart here.
# Tests used:
# [1] = system: tetracycline resistant E. coli (tetA efflux pump); assay: microbe, parasite or virus in culture; format: cell-based, Escherichia coli; conditions: compound alone; tetracycline resistant E. coli
# Excerpt: (§1) Among the organisms studied are several strains of the bacterium E. coli.
# Minimal Inhibitory Concentration (MIC) Procedure. […] Streak the E. coli (DH5α or K-12 MG1655) strain on L.B agar plates. […] Prepare initial concentration of all the compounds required. • 5. […] Vortex each test tube for 2-3 seconds. • 9. […] Vortex each test tube for 2-3 seconds. • 11. […]
# (§2) The minimal inhibitory concentrations (MIC) of all the compounds against three bacterial strains were first determined using the microtiter technique as described above. […] Antimicrobial property of hydraphiles is attributed to the disruption of ion homeostasis in bacteria.
# K-12 E. coli [2] = assay: MIC, K-12 E. coli; format: cell-based, Escherichia coli; conditions: compound alone
# Excerpt: (§3) Minimal Inhibitory Concentration (MIC) Procedure. […] Streak the E. coli (DH5α or K-12 MG1655) strain on L.B agar plates. […] Prepare initial concentration of all the compounds required. • 5. […] Vortex each test tube for 2-3 seconds. • 9. […] Vortex each test tube for 2-3 seconds. • 11.
# K-12 E. coli [3] = assay: Combination of amphiphile and antibiotic against K-12 E. coli; format: cell-based, Escherichia coli
# Description: (§4) Steps 1-7, described in the MIC procedure, shown in Example 2, were followed. • 2. While the E. coli grew, the appropriate volume of compound was added to each test tube. • 3. Antibiotics were added at the required volume of solution to obtain the desired concentration in each test tube. […] Each test tube was vortexed for 2-3 seconds. • 5. Steps 10-12 from the MIC procedure, shown in Example 2, were then executed.
# S. cerevisiae = assay: Minimum inhibitory concentration (MIC), S. cerevisiae; format: cell-based, Saccharomyces cerevisiae; conditions: compound alone
# HEK-293 cells = assay: Toxicity of lariat ethers to HEK-293 cells (MTT assay); format: cell-based
# Excerpt: The error bars represent the standard error. […]
# DH5α E. coli [4] = assay: Combination of lariat ether and antibiotic against DH5α E. coli; format: cell-based, Escherichia coli;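 note: E. coli grown in test-tube liquid culture at a fixed total volume of 2 mL, with the amphiphile and the antibiotic both added to each tube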
# Description: The volume of water added was between 12 to 0.5 μL. The volume of water added was not constant but the volume of media was changed so that the total volume was kept constant at 2 mL.
# as §4
# B. subtilis = assay: Minimum inhibitory concentration (MIC), B. subtilis; format: cell-based, Bacillus subtilis; conditions: compound alone
# Description: Among the organisms studied are several strains of the bacterium E. coli. […] Experiments were conducted to determine the MIC values for the synthetic amphiphiles known as lariat ethers according to the procedures described in Antimicrobial M07-A9: Methods for Dilution Antimicrobial Susceptibility Tests for Bacteria that Grow Aerobically; Clinical and Laboratory Standards Institute, 2012; Vol. 32, 67 pp. MIC values so determined for several lariat ethers and for several antibiotics are shown in Table 1.
# E. coli = assay: Minimum inhibitory concentration (MIC), E. coli; format: cell-based, Escherichia coli; conditions: compound alone
# Excerpt: as §1, §3
# DH5α E. coli [5] = format: cell-based, Escherichia coli; conditions: compound alone
# Excerpt: as §1, §3
# [6] = system: tetracycline resistant E. coli (tetA efflux pump); format: cell-based, Escherichia coli
# Description: However, the bacterial strains used herein are multidrug resistant and the effect of hydraphiles on the inhibition of resistance mechanism (efflux pumps) was not known. The hydraphiles and the controls were tested next to see whether they could recover the activity of antibiotics against efflux pump expressing Gram-positive and Gram-negative bacteria. The MIC of antibiotics were determined in the presence of ½ [MIC] or ¼ [MIC] of each hydraphile or the controls used.
# S. aureus 1199B = assay: MIC, S. aureus 1199B; format: cell-based, Staphylococcus aureus
# Excerpt: K. pneumoniae (ATCC BAA 2146; another Gram-negative bacterium) that expresses multiple classes of efflux pumps and NDM-1 gene was also used. This K. pneumoniae is a clinically relevant strain that was isolated from a patient. Gram-positive S. aureus 1199B was used that overexpresses the NorA efflux pump. Since ethidium bromide and norfloxacin are the substrates of efflux pumps, S. aureus 1199B was used to evaluate the activity of efflux pumps in the presence of the hydraphiles and other membrane disruptors.
# as §2
# [7] = Rifampicin, amphiphile used 6 μM
# [8] = Tetracycline, amphiphile used 6 μM
# [9] = rifampicin, amphiphile used 8 μM, 0.4 vol-% DMSO
# [10] = rifampicin, amphiphile used 16 μM, 0.4 vol-% DMSO
# [11] = rifampicin, amphiphile used 18 μM, 0.4 vol-% DMSO
# [12] = rifampicin, amphiphile used […] μM, 0.4 vol-% DMSO
# [13] = tetracycline, amphiphile used 4 μM, 0.4 vol-% DMSO
# [14] = tetracycline, amphiphile used 16 μM, 0.4 vol-% DMSO
# [15] = tetracycline, amphiphile used 18 μM, 0.4 vol-% DMSO
# [16] = tetracycline, amphiphile used […] μM, 0.4 vol-% DMSO
molecule,measurement,setting,value
"CCCCCCCCCCCN1CCOCCOCCN(CCCCCCCCCCC)CCOCCOCC1 [C11 lariat ether, N,N′-bis(n-undecyl)-4,13-diaza-18-crown-6]",MIC,[1],24 µM
same,MIC,K-12 E. coli [2],24 µM
same,Antibiotic Used (μM) in combination,K-12 E. coli [3]; [7],10 µM
same,Fold Enhancement,K-12 E. coli [3]; [7],2 fold
same,Antibiotic Used (μM) in combination,K-12 E. coli [3]; [8],2.5 µM
same,Fold Enhancement,K-12 E. coli [3]; [8],~2 fold
same,MIC (μM) S. cerevisiae,S. cerevisiae,1.5 µM
same,LD50 to HEK-293,HEK-293 cells,22 µM
same,Antibiotic Used (μM) in combination,DH5α E. coli [4]; [9],15 µM
same,Fold Enhancement,DH5α E. coli [4]; [9],4 fold
same,Antibiotic Used (μM) in combination,DH5α E. coli [4]; [10],6 µM
same,Fold Enhancement,DH5α E. coli [4]; [10],10 fold
same,Antibiotic Used (μM) in combination,DH5α E. coli [4]; [11],3 µM
same,Fold Enhancement,DH5α E. coli [4]; [11],20 fold
same,Antibiotic Used (μM) in combination,DH5α E. coli [4]; [12],6 µM
same,Fold Enhancement,DH5α E. coli [4]; [12],10 fold
same,Antibiotic Used (μM) in combination,DH5α E. coli [4]; [13],3 µM
same,Fold Enhancement,DH5α E. coli [4]; [13],4 fold
same,Antibiotic Used (μM) in combination,DH5α E. coli [4]; [14],0.25 µM
same,Fold Enhancement,DH5α E. coli [4]; [14],48 fold
same,Antibiotic Used (μM) in combination,DH5α E. coli [4]; [15],1.5 µM
same,Fold Enhancement,DH5α E. coli [4]; [15],8 fold
same,Antibiotic Used (μM) in combination,DH5α E. coli [4]; [16],1 µM
same,Fold Enhancement,DH5α E. coli [4]; [16],12 fold
same,MIC (μM) B. subtilis,B. subtilis,9 µM
same,MIC (μM) E. coli,E. coli,24 µM
same,MIC,DH5α E. coli [5],24 µM
same,Antibiotic Used (μM) in combination,[6]; amphiphile used 8 μM,175 µM
same,Fold Enhancement,[6]; amphiphile used 8 μM,5 fold
same,Antibiotic Used (μM) in combination,[6]; amphiphile used 16 μM,87 µM
same,Fold Enhancement,[6]; amphiphile used 16 μM,10 fold
same,Antibiotic Used (μM) in combination,[6]; amphiphile used 18 μM,87 µM
same,Fold Enhancement,[6]; amphiphile used 18 μM,10 fold
same,Antibiotic Used (μM) in combination,[6]; amphiphile used […] μM,87 µM
same,Fold Enhancement,[6]; amphiphile used […] μM,10 fold
"N,N′-di-n-octyl-4,13-diaza-18-crown-6 [C8 lariat ether]",MIC,[1],120 µM
same,MIC,K-12 E. coli [2],300 µM
same,Antibiotic Used (μM) in combination,"K-12 E. coli [3]; Rifampicin, amphiphile used 32 μM",10 µM
same,Antibiotic Used (μM) in combination,"K-12 E. coli [3]; Rifampicin, amphiphile used […] μM",5 µM
same,Antibiotic Used (μM) in combination,"K-12 E. coli [3]; Tetracycline, amphiphile used […] μM",2.5 µM
same,MIC (μM) S. cerevisiae,S. cerevisiae,25 µM
same,LD50 to HEK-293,HEK-293 cells,33 µM
same,Antibiotic Used (μM) in combination,"DH5α E. coli [4]; rifampicin, amphiphile used 40 μM, 0.4 vol-% DMSO",3 ± 1 µM
same,Antibiotic Used (μM) in combination,"DH5α E. coli [4]; rifampicin, amphiphile used 60 μM, 0.4 vol-% DMSO",3 ± 1 µM
same,Antibiotic Used (μM) in combination,"DH5α E. coli [4]; rifampicin, amphiphile used 80 μM, 0.4 vol-% DMSO",3 ± 1 µM
same,Antibiotic Used (μM) in combination,"DH5α E. coli [4]; tetracycline, amphiphile used 20 μM, 0.4 vol-% DMSO",12 µM
same,Antibiotic Used (μM) in combination,"DH5α E. coli [4]; tetracycline, amphiphile used 30 μM, ≤0.6 vol-% DMSO",3 µM
same,Antibiotic Used (μM) in combination,"DH5α E. coli [4]; tetracycline, amphiphile used 40 μM, 0.4 vol-% DMSO",2 µM
same,Antibiotic Used (μM) in combination,"DH5α E. coli [4]; tetracycline, amphiphile used 60 μM, 0.4 vol-% DMSO",2 µM
same,Antibiotic Used (μM) in combination,"DH5α E. coli [4]; tetracycline, amphiphile used 80 μM, 0.4 vol-% DMSO",0.5 µM
same,Antibiotic Used (μM) in combination,"DH5α E. coli [4]; tetracycline, amphiphile used 100 μM, 0.4 vol-% DMSO",0.25 µM
same,MIC (μM) B. subtilis,B. subtilis,105 µM
same,MIC (μM) E. coli,E. coli,120 µM
same,MIC,DH5α E. coli [5],> 240 µM
same,MIC,DH5α E. coli [5]; listed as C8 Lariat,120 µM
same,MIC,DH5α E. coli [5]; listed as n-C8,>120 µM
same,Antibiotic Used (μM) in combination,[6]; amphiphile used 40 μM,233 µM
same,Fold Enhancement,[6]; amphiphile used 40 μM,4 fold
same,Antibiotic Used (μM) in combination,[6]; amphiphile used 60 μM,175 µM
same,Fold Enhancement,[6]; amphiphile used 60 μM,5 fold
same,Antibiotic Used (μM) in combination,[6]; amphiphile used 80 μM,87 µM
same,Fold Enhancement,[6]; amphiphile used 80 μM,10 fold
CCn1cc(C(=O)O)c(=O)c2cc(F)c(N3CCNCC3)cc21 [norfloxacin],susceptibility of S. aureus 1199B,S. aureus 1199B,resistant
"CO[C@H]1/C=C/O[C@@]2(C)Oc3c(C)c(O)c4c(O)c(c(/C=N/N5CCN(C)CC5)c(O)c4c3C2=O)NC(=O)/C(C)=C\C=C\[C@H](C)[C@H](O)[C@@H](C)[C@@H](O)[C@@H](C)[C@H](OC(C)=O)[C@@H]1C [rifampicin, reference compound]",MIC,K-12 E. coli [2]; Escherichia coli,20 µM
same,MIC,DH5α E. coli [5],60 µM
Gramicidin D [reference compound],[Tetracycline] μM in combination,[6]; amphiphile/control 20 μM,900 ± 100 µM

# From patent US10463044B2, “Molecules that inhibit efflux pumps in multi-drug resistant bacteria and uses thereof” (priority 2014, dated 2019)
